Where a name gives a salt, the structure may show the parent alone.
Legend:
[1] = Cytotoxicity against human HT1080 cells assessed as reduction cell viability after 72 hrs by WST8-based colorimetric analysis; format: functional; conditions: HT-1080, 72 h
[2] = Cytotoxicity against human HT1080 cells; format: functional, cell-based; conditions: HT-1080

Structure (SMILES) | IC50 [1] [µM] | IC50 [2] [µM]
C[C@@H]1[C@@H](Nc2ccccc2O)[C@@H](C)C(=O)[C@@H](C)[C@@H](O)[C@H](C)C(=O)O[C@@H]1c1cc(O)cc(O)c1 | 29.2 | –
C[C@@H]1[C@@H](Nc2ccccc2C(=O)O)[C@@H](C)C(=O)[C@@H](C)[C@@H](O)CC(=O)O[C@@H]1c1cc(O)cc(O)c1 | 66.4 | –
C[C@@H]1[C@@H](Nc2ccccc2O)[C@@H](C)C(=O)[C@@H](C)[C@@H](O)[C@@H](C)C(=O)O[C@@H]1c1cc(O)cc(O)c1 | – | 13.9
COc1cccc2c1C(=O)c1c(O)c3c(c(O)c1C2=O)C[C@@](O)(C(=O)CO)C[C@@H]3O[C@H]1C[C@H](N)[C@H](O)[C@H](C)O1 [DOXORUBICIN HYDROCHLORIDE] | 0.38 | –
